A value given as a limit tells only on which side of the number the result lay.

This note sets out measurements from patent publication US9260467B2, “Sialic acid dimers” (priority 2011, dated 2016).

The assay concerns the target T1, Siglec-2 (CD22) (Homo sapiens, UniProt P20273).
T1 sequence (P20273 20-847): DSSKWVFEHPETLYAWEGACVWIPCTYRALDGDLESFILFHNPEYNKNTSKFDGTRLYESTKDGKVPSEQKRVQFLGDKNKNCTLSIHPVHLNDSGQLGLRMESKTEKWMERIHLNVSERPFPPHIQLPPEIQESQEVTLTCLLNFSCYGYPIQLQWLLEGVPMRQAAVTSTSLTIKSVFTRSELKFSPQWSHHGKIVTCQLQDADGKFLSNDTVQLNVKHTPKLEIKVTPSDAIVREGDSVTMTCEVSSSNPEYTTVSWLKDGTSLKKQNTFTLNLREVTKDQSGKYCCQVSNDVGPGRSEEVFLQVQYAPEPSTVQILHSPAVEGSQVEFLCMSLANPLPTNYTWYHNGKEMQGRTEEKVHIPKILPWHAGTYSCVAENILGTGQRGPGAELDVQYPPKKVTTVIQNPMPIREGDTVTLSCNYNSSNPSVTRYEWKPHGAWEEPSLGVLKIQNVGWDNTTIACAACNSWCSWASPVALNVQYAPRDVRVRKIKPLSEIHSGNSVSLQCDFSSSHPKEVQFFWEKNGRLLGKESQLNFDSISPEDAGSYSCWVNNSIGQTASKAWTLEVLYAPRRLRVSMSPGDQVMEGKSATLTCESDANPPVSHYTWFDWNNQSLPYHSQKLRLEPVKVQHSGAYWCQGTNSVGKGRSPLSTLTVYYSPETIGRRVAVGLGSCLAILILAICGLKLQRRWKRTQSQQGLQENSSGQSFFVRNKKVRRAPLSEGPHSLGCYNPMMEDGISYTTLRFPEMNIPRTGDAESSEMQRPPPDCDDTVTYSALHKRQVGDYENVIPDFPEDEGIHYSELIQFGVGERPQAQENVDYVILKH
Nature of the assay: new affinity assay: displacement of biotinylated compound 155 from sialidase-treated Daudi cells, FACS with streptavidin-PE. It is filed as binding. On the set-up: endogenous in cells; host or cells: Daudi (human B-cell lymphoma line). The conditions noted are these: Table II; rIP values set relative to compound 38; Daudi cells, displacement of compound 155. The method, then: To determine the affinity of the compound of the formula (I), approximately 5×10^6 to 2×10^8 cells of the human B-cell lymphoma line “Daudi” were incubated with sialidase (A. ureafaciens) at 37° C. for 1 h (final concentration 0.1 unit/ml). […] Batches of 1-2×10^6 cells were transferred to sample vessels, and incubated on ice for 15 min with serial concentrations (10-fold dilutions, 1 mM to 1×10^−7 mM) of the substance under measurement (inhibitor). The reaction volume was 50 μl. Then 50 microliters of compound 155 (4-micromolar) were added, and incubation took place for 20 min Washing with FACS buffer (PBS, 0.1 BSA, 0.01% sodium azide) was followed by incubation with streptavidin-PE in the dark for 15 min, followed by washing and measurement of the bound amount of […] via the streptavidin-PE in the FACS. For the determination of 0% displacement of the compound 155, cells without inhibitor were measured. For the determination of 100% displacement, cells were measured without compound 155 and without inhibitor. For each assay, four substances and one reference were measured. The IC50 values determined in each assay were subsequently converted into values of rIP (relative Inhibitory Potency). […]
Molecule `CC(=O)N[C@H]1[C@H]([C@H](O)[C@H](O)CNC(=O)c2ccc(-c3ccccc3)cc2)O[C@@](OCc2cn(CCNC(=O)c3ccc(C(=O)NCCn4cc(CO[C@]5(C(=O)[O-])C[C@H](O)[C@@H](NC(C)=O)[C@H]([C@H](O)[C@H](O)CNC(=O)c6ccc(-c7ccccc7)cc6)O5)nn4)cc3)nn2)(C(=O)[O-])C[C@@H]1O.[Na+].[Na+]` [Compound 125] had a rIP of 8. To `CC(=O)N[C@H]1[C@H]([C@H](O)[C@H](O)CNC(=O)c2ccc(-c3c4ccc(=O)cc-4oc4cc(O)ccc34)c(C(=O)[O-])c2)O[C@@](OCCCSCCNC(=O)c2ccc(-c3ccc(C(=O)NCCSCCCO[C@]4(C(=O)[O-])C[C@H](O)[C@@H](NC(C)=O)[C@H]([C@H](O)[C@H](O)CNC(=O)c5ccc(-c6c7ccc(=O)cc-7oc7cc(O)ccc67)c(C(=O)[O-])c5)O4)cc3)cc2)(C(=O)[O-])C[C@@H]1O.[Na+].[Na+].[Na+].[Na+]` [Compound 131] belongs 4; to `CC(=O)N[C@H]1[C@H]([C@H](O)[C@H](O)CNC(=O)c2ccc(-c3ccccc3)cc2)O[C@@](OCCCSCCNC(=O)c2ccc(C(=O)NCCSCCCO[C@]3(C(=O)[O-])C[C@H](OC(=O)c4ccccc4)[C@@H](NC(C)=O)[C@H]([C@H](O)[C@H](O)CNC(=O)c4ccc(-c5ccccc5)cc4)O3)cc2)(C(=O)[O-])C[C@@H]1OC(=O)c1ccccc1.[Na+].[Na+]` [Compound 113], 3522. The molecule `CC(=O)N[C@H]1[C@H]([C@H](O)[C@H](O)CNC(=O)c2ccc(-c3ccccc3)cc2)O[C@@](OCCC[S+]([O-])CCNC(=O)c2ccc(C(=O)NCC[S+]([O-])CCCO[C@]3(C(=O)[O-])C[C@H](O)[C@@H](NC(C)=O)[C@H]([C@H](O)[C@H](O)CNC(=O)c4ccc(-c5ccccc5)cc4)O3)cc2)(C(=O)[O-])C[C@@H]1O.[Na+].[Na+]` (stereo partly shown) [Compound 132] registered a rIP of 212. On to `CC(=O)N[C@H]1[C@H]([C@H](O)[C@H](O)CNC(=O)c2ccc(-c3ccccc3)cc2)O[C@@](OCCCSCCNC(=O)c2ccccc2-c2ccccc2C(=O)NCCSCCCO[C@]2(C(=O)[O-])C[C@H](O)[C@@H](NC(C)=O)[C@H]([C@H](O)[C@H](O)CNC(=O)c3ccc(-c4ccccc4)cc3)O2)(C(=O)[O-])C[C@@H]1O.[Na+].[Na+]` [Compound 35], for which the rIP is 717. `CC(=O)N[C@H]1[C@H]([C@H](O)[C@H](O)CNC(=O)Cc2ccc3ccccc3c2)O[C@@](OCCCSCCNC(=O)c2ccc(-c3ccc(C(=O)NCCSCCCO[C@]4(C(=O)[O-])C[C@H](O)[C@@H](NC(C)=O)[C@H]([C@H](O)[C@H](O)CNC(=O)Cc5ccc6ccccc6c5)O4)cc3)cc2)(C(=O)[O-])C[C@@H]1O.[Na+].[Na+]` [Compound 127] had a rIP of 74. To `COc1ccccc1-c1ccc(C(=O)NC[C@@H](O)[C@@H](O)[C@@H]2O[C@@](OCCCSCCNC(=O)c3ccc(C(=O)NCCSCCCO[C@]4(C(=O)[O-])C[C@H](O)[C@@H](NC(C)=O)[C@H]([C@H](O)[C@H](O)CNC(=O)c5ccc(-c6ccccc6OC)cc5)O4)cc3)(C(=O)[O-])C[C@H](O)[C@H]2NC(C)=O)cc1.[Na+].[Na+]` [Compound 74] belongs 27. For the molecule `CC(=O)N[C@H]1[C@H]([C@H](O)[C@H](O)CNC(=O)Cc2ccc3ccccc3c2)O[C@@](OCCCSCCNC(=O)c2ccc(C(=O)NCCSCCCO[C@]3(C(=O)[O-])C[C@H](O)[C@@H](NC(C)=O)[C@H]([C@H](O)[C@H](O)CNC(=O)Cc4ccc5ccccc5c4)O3)cc2)(C(=O)[O-])C[C@@H]1O.[Na+].[Na+]` [Compound 66], the rIP is 197. To `CC(=O)N[C@H]1[C@H]([C@H](O)[C@H](O)CNC(=O)Cc2ccc(-c3ccccc3)cc2)O[C@@](OCCCSCCNC(=O)c2ccc(C(=O)NCCSCCCO[C@]3(C(=O)[O-])C[C@H](O)[C@@H](NC(C)=O)[C@H]([C@H](O)[C@H](O)CNC(=O)Cc4ccc(-c5ccccc5)cc4)O3)cc2)(C(=O)[O-])C[C@@H]1O.[Na+].[Na+]` [Compound 79] belongs 181; to `CC(=O)N[C@H]1[C@H]([C@H](O)[C@H](O)CNC(=O)c2ccc(-c3ccccc3)cc2)O[C@@](OCCCSCCNC(=O)CSSCC(=O)NCCSCCCO[C@]2(C(=O)[O-])C[C@H](O)[C@@H](NC(C)=O)[C@H]([C@H](O)[C@H](O)CNC(=O)c3ccc(-c4ccccc4)cc3)O2)(C(=O)[O-])C[C@@H]1O.[Na+].[Na+]` [Compound 13], 251; to `CC(=O)N[C@H]1[C@H]([C@H](O)[C@H](O)CNS(=O)(=O)c2ccc(-c3ccccc3)cc2)O[C@@](OCCCSCCNC(=O)c2ccc(C(=O)NCCSCCCO[C@]3(C(=O)[O-])C[C@H](O)[C@@H](NC(C)=O)[C@H]([C@H](O)[C@H](O)CNS(=O)(=O)c4ccc(-c5ccccc5)cc4)O3)cc2)(C(=O)[O-])C[C@@H]1O.[Na+].[Na+]` [Compound 84], 9. To `CC(=O)N[C@H]1[C@H]([C@H](O)[C@H](O)CNC(=O)c2ccc3c(c2)C(=O)c2ccccc2-3)O[C@@](OCCCSCCNC(=O)c2ccc(C(=O)NCCSCCCO[C@]3(C(=O)[O-])C[C@H](O)[C@@H](NC(C)=O)[C@H]([C@H](O)[C@H](O)CNC(=O)c4ccc5c(c4)C(=O)c4ccccc4-5)O3)cc2)(C(=O)[O-])C[C@@H]1O.[Na+].[Na+]` [Compound 78] belongs 27. The figure for `CC(=O)N[C@H]1[C@H]([C@H](O)[C@H](O)CNC(=O)c2ccc(-c3cccs3)s2)O[C@@](OCCCSCCNC(=O)c2ccc(C(=O)NCCSCCCO[C@]3(C(=O)[O-])C[C@H](O)[C@@H](NC(C)=O)[C@H]([C@H](O)[C@H](O)CNC(=O)c4ccc(-c5cccs5)s4)O3)cc2)(C(=O)[O-])C[C@@H]1O.[Na+].[Na+]` [Compound 62] is 203; for `CC(=O)N[C@H]1[C@H]([C@H](O)[C@H](O)CNC(=O)c2ccc(-c3ccccc3)cc2)O[C@@](OCCCSCCNC(=O)c2ccc(C(=O)NCCSCCCO[C@]3(C(=O)[O-])C[C@H](O)[C@@H](NC(C)=O)[C@H]([C@H](O)[C@H](O)CNC(=O)c4ccc(C5CCCCC5)cc4)O3)cc2)(C(=O)[O-])C[C@@H]1O.[Na+].[Na+]` [Compound 103] it is 185; for `CC(=O)N[C@H]1[C@H]([C@H](O)[C@H](O)CNC(=O)c2ccc(-c3ccccc3)cc2)O[C@@](OCCCSCCNC(=O)c2ccc(C(=O)NCCSCCCO[C@]3(C(=O)[O-])C[C@H](O)[C@@H](NC(C)=O)[C@H]([C@H](O)[C@H](O)CNC(=O)c4ccc(-c5ccccc5)cc4)O3)c3ccccc23)(C(=O)[O-])C[C@@H]1O.[Na+].[Na+]` [Compound 34] it is 899.

The molecule `CC(=O)N[C@H]1[C@H]([C@H](O)[C@H](O)CNC(=O)c2ccc(Oc3ccccc3)cc2)O[C@@](OCCCSCCNC(=O)c2ccc(C(=O)NCCSCCCO[C@]3(C(=O)[O-])C[C@H](O)[C@@H](NC(C)=O)[C@H]([C@H](O)[C@H](O)CNC(=O)c4ccc(Oc5ccccc5)cc4)O3)cc2)(C(=O)[O-])C[C@@H]1O.[Na+].[Na+]` [Compound 63] had a rIP of 20. To `CC(=O)N[C@H]1[C@H]([C@H](O)[C@H](O)CNC(=O)c2ccc(Cl)cc2)O[C@@](OCCCSCCNC(=O)c2ccc(C(=O)NCCSCCCO[C@]3(C(=O)[O-])C[C@H](O)[C@@H](NC(C)=O)[C@H]([C@H](O)[C@H](O)CNC(=O)c4ccc(Cl)cc4)O3)cc2)(C(=O)[O-])C[C@@H]1O.[Na+].[Na+]` [Compound 72] belongs 38; to `CC(=O)N[C@H]1[C@H]([C@H](O)[C@H](O)CNC(=O)c2cc3ccccc3s2)O[C@@](OCCCSCCNC(=O)c2ccc(C(=O)NCCSCCCO[C@]3(C(=O)[O-])C[C@H](O)[C@@H](NC(C)=O)[C@H]([C@H](O)[C@H](O)CNC(=O)c4cc5ccccc5s4)O3)cc2)(C(=O)[O-])C[C@@H]1O.[Na+].[Na+]` [Compound 70], 137. For `CC(=O)N[C@H]1[C@H]([C@H](O)[C@H](O)CNC(=O)c2ccc(-c3ccccc3)cc2)O[C@@](NC(=O)CCCCCNC(=O)c2ccc(C(=O)NCCCCCC(=O)N[C@]3(C(=O)[O-])C[C@H](O)[C@@H](NC(C)=O)[C@H]([C@H](O)[C@H](O)CNC(=O)c4ccc(-c5ccccc5)cc4)O3)cc2)(C(=O)[O-])C[C@@H]1O.[Na+].[Na+]` [Compound 116], the rIP is listed as under 1.
